Experimental data: US20210212959A1, “GIP ELEVATION INHIBITOR” (KAO CORPORATION, priority 2018, published 2021)

System: blood GIP level
Test: GIP elevation inhibitory activity of D-mannitol (single dietary test)
Format: in vivo, mice (C57BL/6J)
Description: Powdery feeds were prepared by using D-mannitol (manufactured by Kao Corp.) in accordance with the compositions listed in the following table and used as test samples. [table] Powdery feeds (Table 1) were weighed so as to have the same calories in each group and freely fed for 30 minutes to mice (C57BL/6J, CLEA Japan, Inc, male, 10-weeks old, n=10) fasted for 18 hours or more. During this free feeding, 200 mg of the feed was given to the high fat diet (HF) group; whereas, 216 mg of the feed to the D-mannitol group. Note that the calorie of D-mannitol was calculated as 0. Before feeding, and 30, 60 and 120 minutes after feeding a powdery-feed test sample, the mice were anesthetized with isoflurane, blood was sampled from the orbit (heparinized hematocrit micro blood collection tube, manufactured by VITREX) and the blood GIP level was measured. The amount of GIP was measured in accordance with ELISA method (Rat/Mouse GIP (total) ELISA (Millipore)). Each value was shown by mean±standard deviation. Statistically significant difference between the groups was obtained by applying Student's t-test to the HF group (*: p<0.05).

OC[C@@H](O)[C@@H](O)[C@H](O)[C@H](O)CO [D-mannitol]
inhibitory activity against GIP elevation (conclusion of single dietary test in mice): has an inhibitory activity against GIP elevation
blood GIP concentration value at 30 minutes after intake of the sample (mice C57BL/6J male, fasted 18 hours or more, 216 mg high fat powdery feed containing D-mannitol, compared to HF group, Student's t-test p<0.05, FIG. 1A): significantly low
area under the curve of GIP concentration up to 120 minutes after intake of the sample (mice C57BL/6J male, fasted 18 hours or more, 216 mg high fat powdery feed containing D-mannitol, compared to control (HF) group, p<0.05, FIG. 1B): significantly low
